Experimental findings from ChEMBL document CHEMBL1697731, “Cheminformatics analysis of assertions mined from literature that describe drug-induced liver injury in different species” (Chem Res Toxicol, 2010) are described below.

Data set [1] has as its system Hepatotoxicity. Put plainly: Literature-mined compound from Fourches et al multi-species drug-induced liver injury (DILI) dataset, effect in rodents. As to conditions: rodentia.
Data set [2] concerns Hepatotoxicity. Put plainly: Literature-mined compound from Fourches et al multi-species drug-induced liver injury (DILI) dataset, effect in non-rodents.
The test system of data set [3] is Hepatotoxicity. Put plainly: Literature-mined compound from Fourches et al multi-species drug-induced liver injury (DILI) dataset, effect in humans. As to conditions: human.

Turning to `CCCCN1C[C@H](O)[C@@H](O)[C@H](O)[C@H]1CO`, the figures for the Hepatotoxicity entry in data set [1], in data set [2] and in data set [3] were “drug-induced liver injury reported”, “no drug-induced liver injury reported” and “no drug-induced liver injury reported”, respectively.
`CC(C)CN(C[C@@H](O)[C@H](Cc1ccccc1)NC(=O)O[C@H]1CCOC1)S(=O)(=O)c1ccc(N)cc1`: the Hepatotoxicity result is on record as “no drug-induced liver injury reported” in data set [1], “no drug-induced liver injury reported” in data set [2] and “drug-induced liver injury reported” in data set [3].
Turning to `FC(F)OC(F)C(F)(F)F` (centres undefined), the Hepatotoxicity result was “drug-induced liver injury reported” in data set [1], “no drug-induced liver injury reported” in data set [2] and “drug-induced liver injury reported” in data set [3].
For the compound `CCN1CC(CCN2CCOCC2)C(c2ccccc2)(c2ccccc2)C1=O.Cl` (centres undefined), the Hepatotoxicity entry in data set [1] is “no drug-induced liver injury reported”; in data set [2], “no drug-induced liver injury reported”; in data set [3], “drug-induced liver injury reported”.
On to `N#Cc1cc(NC(=O)C(=O)O)c(Cl)c(NC(=O)C(=O)O)c1.NC(CO)(CO)CO`, for which the Hepatotoxicity entry in data set [1] is on record as “drug-induced liver injury reported”; in data set [2], “no drug-induced liver injury reported”; in data set [3], “no drug-induced liver injury reported”.
In the case of `C[C@@H](O)[C@H](NC(=O)N(C)c1ncnc2c1ncn2[C@@H]1O[C@H](COP(=O)(O)O)[C@@H](O)[C@H]1O)C(=O)O`, the Hepatotoxicity result in data set [1] is reported as “drug-induced liver injury reported”; in data set [2], “no drug-induced liver injury reported”; in data set [3], “no drug-induced liver injury reported”.
On to `FC(F)OC(F)(F)C(F)Cl` (centres undefined), for which the Hepatotoxicity entry in data set [1], in data set [2] and in data set [3] was “drug-induced liver injury reported” each time.
Regarding `CC[C@@H](C(N)=O)N1CCCC1=O`, the figures for the Hepatotoxicity entry in data set [1], in data set [2] and in data set [3] were “no drug-induced liver injury reported”, “no drug-induced liver injury reported” and “drug-induced liver injury reported”, respectively.
In the case of `CCOC(=O)[C@H](CCc1ccccc1)N[C@@H](C)C(=O)N1Cc2ccccc2C[C@H]1C(=O)O`, the values for the Hepatotoxicity entry in data set [1], in data set [2] and in data set [3] were “no drug-induced liver injury reported”, “no drug-induced liver injury reported” and “drug-induced liver injury reported”, respectively.
For the compound `C=Cc1c(C)c2cc3nc(c(CC(=O)NC(CC(=O)O)C(=O)O)c4nc(cc5[nH]c(cc1[nH]2)c(C)c5CC)C(C)=C4C(=O)O)C(CCC(=O)O)C3C` (centres undefined), the Hepatotoxicity entry is given as “drug-induced liver injury reported” in data set [1], “no drug-induced liver injury reported” in data set [2] and “no drug-induced liver injury reported” in data set [3].
For the compound `C[C@H](NC(=O)C(=O)Nc1ccccc1C(C)(C)C)C(=O)N[C@@H](CC(=O)O)C(=O)COc1c(F)c(F)cc(F)c1F`, the Hepatotoxicity result in data set [1] was “drug-induced liver injury reported”; in data set [2], “no drug-induced liver injury reported”; in data set [3] it was “no drug-induced liver injury reported”.
In the case of `CCC(=C(c1ccc(O)cc1)c1ccc(OCCN(C)C)cc1)c1ccccc1`, the Hepatotoxicity entry in data set [1] is given as “drug-induced liver injury reported”; in data set [2], “no drug-induced liver injury reported”; in data set [3], “drug-induced liver injury reported”.
`CNC(=O)[C@@H](NC(=O)[C@H](CC(C)C)[C@H](O)C(=O)NO)C(C)(C)C`: the Hepatotoxicity entry in data set [1] was “drug-induced liver injury reported”; in data set [2], “no drug-induced liver injury reported”; in data set [3] it was “no drug-induced liver injury reported”.
Consider `CCOC(=O)[C@H](CCc1ccccc1)N[C@@H](C)C(=O)N1C(=O)N(C)C[C@H]1C(=O)O`, for which the Hepatotoxicity entry in data set [1] is reported as “drug-induced liver injury reported”; in data set [2], “no drug-induced liver injury reported”; in data set [3], “no drug-induced liver injury reported”.
On to `C=C1[C@H](CO)[C@@H](O)C[C@@H]1n1cnc2c(=O)[nH]c(N)nc21.O`, for which the results for the Hepatotoxicity result in data set [1], in data set [2] and in data set [3] were “no drug-induced liver injury reported”, “no drug-induced liver injury reported” and “drug-induced liver injury reported”, respectively.
For the compound `CC(C)(C)NC(=O)[C@@H]1CN(Cc2cccnc2)CCN1C[C@@H](O)C[C@@H](Cc1ccccc1)C(=O)N[C@H]1c2ccccc2C[C@H]1O.O`, the Hepatotoxicity result was “drug-induced liver injury reported” in data set [1], “no drug-induced liver injury reported” in data set [2] and “drug-induced liver injury reported” in data set [3].
For `CCOC(=O)[C@H](CCc1ccccc1)N[C@@H](C)C(=O)N1CCC[C@H]1C(=O)O`, the values for the Hepatotoxicity entry in data set [1], in data set [2] and in data set [3] were “drug-induced liver injury reported”, “no drug-induced liver injury reported” and “drug-induced liver injury reported”, respectively.
Take `Cc1c(O)cccc1C(=O)N[C@@H](CSc1ccccc1)[C@H](O)CN1C[C@H]2CCCC[C@H]2C[C@H]1C(=O)NC(C)(C)C`: the Hepatotoxicity entry is on record as “no drug-induced liver injury reported” in data set [1], “no drug-induced liver injury reported” in data set [2] and “drug-induced liver injury reported” in data set [3].
With `Cc1onc(-c2ccccc2)c1C(=O)N[C@@H]1C(=O)N2[C@@H]1SC(C)(C)[C@@H]2C(=O)[O-].[Na+]`, the Hepatotoxicity entry in data set [1] is “no drug-induced liver injury reported”; in data set [2] it was “no drug-induced liver injury reported”; in data set [3] it was “drug-induced liver injury reported”.
As for `N[C@@H](Cc1ccc(N(CCCl)CCCl)cc1)C(=O)O`, the Hepatotoxicity entry in data set [1] is on record as “drug-induced liver injury reported”; in data set [2] it was “no drug-induced liver injury reported”; in data set [3] it was “drug-induced liver injury reported”.
In the case of `CCN(CC)CCOc1ccc(C(=C(Cl)c2ccccc2)c2ccccc2)cc1` (stereo in doubt; form 2) [CLOMIPHENE], the Hepatotoxicity entry in data set [1] is recorded as “drug-induced liver injury reported”; in data set [3], “no drug-induced liver injury reported”.
As to `C[C@]12CCC(=O)C=C1CC[C@@H]1[C@@H]2CC[C@@]2(C)[C@H]1CC[C@]2(C)O` (stereo in doubt; form 2) [METHYLTESTOSTERONE], the Hepatotoxicity result in data set [3] is recorded as “drug-induced liver injury reported”.
With `CC(=O)[C@H]1CC[C@H]2[C@@H]3CCC4=CC(=O)CC[C@]4(C)[C@H]3CC[C@]12C` (stereo in doubt; form 2) [PROGESTERONE], the Hepatotoxicity entry in data set [1] and in data set [2] was “no drug-induced liver injury reported” each time.
Consider `NCC(=O)O` [GLYCINE], for which the Hepatotoxicity result in data set [1] (Liver) and in data set [2] (Liver) was “drug-induced liver injury reported” throughout.
For `Cc1ncc(CO)c(CO)c1O` [PYRIDOXINE], the Hepatotoxicity entry in data set [1] (Liver) was “drug-induced liver injury reported”; in data set [2] (Liver), “no drug-induced liver injury reported”.
